Measured values taken from patent publication US10626081B2, “Farnesoid X receptor agonists and uses thereof” (Metacrine, Inc., priority 2015, dated 2020).
pEC50: −log10 of the molar value.

What was measured:
FXR [1] = target: T1, FXR (Homo sapiens, UniProt Q96RI1); experiment: In Vitro FXR Assay (PGL3): luciferase reporter in transfected CV-1 cells; type: cell-based; settings: CV-1 cells transfected with hFXR, hRXR, PGL3-ECRE*6-luc; 18 h incubation; luminescence
T1 construct: expressed in transfected cells; host or cells: CV-1 cells
T1 sequence (Q96RI1 1-486): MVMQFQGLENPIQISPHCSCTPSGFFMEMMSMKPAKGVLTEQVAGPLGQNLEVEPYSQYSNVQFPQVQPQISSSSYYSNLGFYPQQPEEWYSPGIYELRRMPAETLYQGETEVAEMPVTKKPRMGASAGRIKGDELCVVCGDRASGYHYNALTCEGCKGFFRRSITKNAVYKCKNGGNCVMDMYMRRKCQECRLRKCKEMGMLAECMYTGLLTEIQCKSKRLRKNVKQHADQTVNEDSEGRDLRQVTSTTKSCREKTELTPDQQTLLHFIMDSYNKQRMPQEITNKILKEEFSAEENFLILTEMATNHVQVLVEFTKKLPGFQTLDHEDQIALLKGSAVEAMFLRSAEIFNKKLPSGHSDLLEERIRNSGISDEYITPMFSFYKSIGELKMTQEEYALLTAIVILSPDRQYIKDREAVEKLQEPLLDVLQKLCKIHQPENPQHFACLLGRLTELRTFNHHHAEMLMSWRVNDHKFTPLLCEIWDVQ
T1 sequence (P19793 1-462 partner): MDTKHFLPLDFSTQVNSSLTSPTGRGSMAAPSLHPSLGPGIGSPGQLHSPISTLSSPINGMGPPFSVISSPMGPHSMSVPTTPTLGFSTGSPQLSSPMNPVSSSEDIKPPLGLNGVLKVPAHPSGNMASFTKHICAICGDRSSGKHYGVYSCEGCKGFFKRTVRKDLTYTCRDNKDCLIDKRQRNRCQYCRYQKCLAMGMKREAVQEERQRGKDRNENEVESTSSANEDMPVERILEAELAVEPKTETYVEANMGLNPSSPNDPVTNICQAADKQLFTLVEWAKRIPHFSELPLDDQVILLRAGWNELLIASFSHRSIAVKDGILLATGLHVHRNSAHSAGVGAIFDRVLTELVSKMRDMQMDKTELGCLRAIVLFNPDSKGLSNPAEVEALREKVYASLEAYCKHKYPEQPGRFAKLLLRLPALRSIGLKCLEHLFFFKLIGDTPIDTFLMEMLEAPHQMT
How it was run: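 CV-1 cells in charcoal-stripped FBS were transiently co-transfected with full-length human FXR, RXR, an ECRE×6-luciferase reporter, β-gal and YFP plasmids. Transfected cells were reseeded onto half-log compound dilutions and incubated 18 h. Luciferase luminescence was read after lysis, and EC50 was determined.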

FXR [2] = target: T1, FXR; experiment: In Vitro FXR Assay (TK): TK-ECRE-luc reporter in transfected CV-1 cells; type: cell-based; settings: CV-1 cells transfected with hFXR, hRXR, 18 h incubation, luminescence
How it was run: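 Luciferase read-out from lysed CV-1 cells exposed 18 h to DMSO-diluted compounds. Cells had been transfected overnight with expression plasmids for hFXR and hRXR plus TK-ECRE-luc reporter and pCMX-YFP, grown in charcoal-stripped serum at 37 °C, 5% CO2.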

Structure (SMILES) | Cmpd/Fex (ratio of the EC50 for the test compound relative to the EC50 of the Fexaramine control) (FXR [1]) | pEC50 (FXR [2])
COC(=O)/C=C/c1cccc(N(Cc2ccc(-c3ccc4c(c3)ncn4C)cc2)C(=O)C2CCCCC2)c1 [compound 74, (E)-Methyl 3-(3-(N-(4-(1-methyl-1H-benzo[d]imidazol-5-yl)benzyl)cyclohexanecarboxamido)phenyl) acrylate] | + (‘+’ means Cmpd/Fex > 100) | 5.00 to 6.00
COC(=O)/C=C/c1cccc(N(Cc2ccc(-c3ccc(N(C)C)c(OC)c3)cc2)C(=O)C2CCCCC2)c1 [compound 75, (E)-methyl 3-(3-(N-((4′-(dimethylamino)-3′-methoxy-[1,1′-biphenyl]-4-yl)methyl)cyclohexanecarboxamido)phenyl) acrylate] | ++ (‘++’ means Cmpd/Fex > 10 & < 100) | 5.00 to 6.00
COC(=O)/C=C/c1cccc(N(Cc2ccc(N3CCOCC3)cc2)C(=O)C2CCCCC2)c1 [compound 77, (E)-Methyl 3-(3-(N-(4-morpholinobenzyl)cyclohexane-carboxamido)phenyl)acrylate] | + (‘+’ means Cmpd/Fex > 100) | 5.00 to 6.00
COC(=O)/C=C/c1cccc(N(Cc2ccc(N3CCCCC3)cc2)C(=O)C2CCCCC2)c1 [compound 78, (E)-Methyl 3-(3-(N-(4-(piperidin-1-yl)benzyl)cyclohexanecarboxamido)phenyl) acrylate] | ++ (‘++’ means Cmpd/Fex > 10 & < 100) | 5.00 to 6.00
COC(=O)/C=C/c1cccc(N(Cc2cccc3ccccc23)C(=O)C2CCCCC2)c1 [compound 80, (E)-Methyl 3-(3-(N-(naphthalen-1-ylmethyl)cyclohexanecarboxamido)phenyl) acrylate] | + (‘+’ means Cmpd/Fex > 100) | < 5.00
COC(=O)/C=C/c1cccc(N(Cc2ccccc2-c2ccccc2)C(=O)C2CCCCC2)c1 [compound 81, (E)-Methyl 3-(3-(N-([1,1′-biphenyl]-2-ylmethyl)cyclohexanecarboxamido)phenyl) acrylate] | + (‘+’ means Cmpd/Fex > 100) | < 5.00
COC(=O)/C=C/c1cccc(N(Cc2cccc(-c3ccccc3)c2)C(=O)C2CCCCC2)c1 [compound 82, (E)-Methyl 3-(3-(N-([1,1′-biphenyl]-3-ylmethyl)cyclohexanecarboxamido)phenyl) acrylate] | + (‘+’ means Cmpd/Fex > 100) | < 5.00
CC(C)OC(=O)/C=C/c1cccc(N(Cc2ccc(-c3ccc(N(C)C)cc3)cc2)C(=O)C2CCCCC2)c1 [compound 83, (E)-iso-Propyl 3-(3-(N-((4′-(dimethylamino)-[1,1′-biphenyl]-4-yl)methyl)cyclohexanecarboxamido)phenyl) acrylate] | +++ (‘+++’ means Cmpd/Fex < 10) | 5.00 to 6.00
CCOC(=O)/C=C/c1cccc(N(Cc2ccc(-c3ccc(N(C)C)cc3)cc2)C(=O)C2CCCCC2)c1 [compound 84, (E)-Ethyl 3-(3-(N-((4′-(dimethylamino)-[1,1′-biphenyl]-4-yl)methyl)cyclohexanecarboxamido)phenyl) acrylate] | +++ (‘+++’ means Cmpd/Fex < 10) | ≥ 6.00
CCc1cc(/C=C/C(=O)OC)cc(N(Cc2ccc(-c3ccc(N(C)C)cc3)cc2)C(=O)C2CCCCC2)c1 [compound 85, (E)-Methyl 3-(3-(N-((4′-(dimethylamino)-[1,1′-biphenyl]-4-yl)methyl)cyclohexanecarboxamido)-5-ethylphenyl)acrylate] | +++ (‘+++’ means Cmpd/Fex < 10) | 5.00 to 6.00
CN(C)c1ccc(-c2ccc(CN(C(=O)C3CCCCC3)c3cccc(/C=C/C(=O)OCCO)c3)cc2)cc1 [compound 86, (E)-2-Hydroxyethyl 3-(3-(N-((4′-(dimethylamino)-[1,1′-biphenyl]-4-yl)methyl)cyclohexanecarboxamido)phenyl) acrylate] | +++ (‘+++’ means Cmpd/Fex < 10) | 5.00 to 6.00
COC(=O)C#Cc1cccc(N(Cc2ccc(-c3ccc(N(C)C)cc3)cc2)C(=O)C2CCCCC2)c1 [compound 87, Methyl 3-(3-(N-((4′-(Dimethylamino)-[1,1′-biphenyl]-4-yl)methyl)cyclohexanecarboxamido)phenyl) propiolate] | +++ (‘+++’ means Cmpd/Fex < 10) | ≥ 6.00
CN(C)c1ccc(-c2ccc(CN(C(=O)C3CCCCC3)c3cccc(/C=C/C(=O)O)c3)cc2)cc1 [compound 88, (E)-3-(3-(N-((4′-(dimethylamino)-[1,1′-biphenyl]-4-yl)methyl)cyclohexanecarboxamido)phenyl)acrylic acid] | + (‘+’ means Cmpd/Fex > 100) | < 5.00
CN(C)c1ccc(-c2ccc(CN(c3cccc(/C=C/C(=O)O)c3)C(=O)[C@H]3CC[C@H](O)CC3)cc2)cc1 [compound 89, (E)-3-(3-((1s,4s)-N-((4′-(Dimethylamino)-[1,1′-biphenyl]-4-yl)methyl)-4-hydroxycyclohexane-carboxamido)phenyl) acrylic acid] | + (‘+’ means Cmpd/Fex > 100) | < 5.00
COC(=O)CCc1cc(C)cc(N(Cc2ccc(-c3ccc(N(C)C)cc3)cc2)C(=O)C2CCCCC2)c1 [compound 90, Methyl 3-(3-(N-((4′-(dimethylamino)-[1,1′-biphenyl]-4-yl)methyl)cyclohexanecarboxamido)-5-methylphenyl)propanoate] | +++ (‘+++’ means Cmpd/Fex < 10) | 5.00 to 6.00
COC(=O)CCc1cc(N(Cc2ccc(-c3ccc(N(C)C)cc3)cc2)C(=O)C2CCCCC2)ccc1C [compound 91, Methyl 3-(5-(N-((4′-(dimethylamino)-[1,1′-biphenyl]-4-yl)methyl)cyclohexanecarboxamido)-2-methylphenyl)propanoate] | + (‘+’ means Cmpd/Fex > 100) | < 5.00
COC(=O)CCc1cccc(N(Cc2ccc(-c3ccc(N(C)C)cc3)cc2)C(=O)C2CCCCC2)c1C [compound 92, Methyl 3-(3-(N-((4′-(dimethylamino)-[1,1′-biphenyl]-4-yl)methyl)cyclohexanecarboxamido)-2-methylphenyl)propanoate] | + (‘+’ means Cmpd/Fex > 100) | 5.00 to 6.00
COC(=O)CCc1ccc(C)c(N(Cc2ccc(-c3ccc(N(C)C)cc3)cc2)C(=O)C2CCCCC2)c1 [compound 93, Methyl 3-(3-(N-((4′-(dimethylamino)-[1,1′-biphenyl]-4-yl)methyl)cyclohexanecarboxamido)-4-methylphenyl)propanoate] | ++ (‘++’ means Cmpd/Fex > 10 & < 100) | < 5.00
COC(=O)CC(C)c1cccc(N(Cc2ccc(-c3ccc(N(C)C)cc3)cc2)C(=O)C2CCCCC2)c1 (stereo not shown) [compound 94, Methyl 3-(3-(N-((4′-(dimethylamino)-[1,1′-biphenyl]-4-yl)methyl)cyclohexanecarboxamido)phenyl) butanoate] | ++ (‘++’ means Cmpd/Fex > 10 & < 100) | 5.00 to 6.00
COC(=O)C(C)Cc1cccc(N(Cc2ccc(-c3ccc(N(C)C)cc3)cc2)C(=O)C2CCCCC2)c1 (stereo not shown) [compound 95, Methyl 3-(3-(N-((4′-(dimethylamino)-[1,1′-biphenyl]-4-yl)methyl)cyclohexanecarboxamido)phenyl)-2-methylpropanoate] | ++ (‘++’ means Cmpd/Fex > 10 & < 100) | 5.00 to 6.00
